Reference: USRE37839E1, “O-benzyloxime ethers and crop protection agents containing these compounds” (BASF Aktiengesellschaft, priority 1990, dated 2002)

Legend:
[1] = tested on: brown rust (Puccinia recondita); experiment: Action on wheat brown rust; assay type: in vivo, Puccinia recondita on wheat seedlings ("Kanzler"); details: 0.025 wt % spray liquors; sprayed 24 h after infection; assessed after 8 days
Method: Leaves of pot-grown wheat seedlings of the “Kanzler” variety were dusted with spores of brown rust (Puccinia recondita). The pots were then placed for 24 hours at 20° to 22° C. in a high-humidity (90-95%) chamber. During this period the spores germinated and the germ tubes penetrated the leaf tissue. […] After the sprayed-on layer had dried, the plants were set up in the greenhouse at 20° to 22° C. and a relative humidity of 65 to 70%. The extent of rust fungus spread on the leaves was assessed after 8 days.

Plasmopara viticola = experiment: Action on Peronospora in grapes; details: 0.025 wt % spray liquors; leaves infected 8 days after spraying
Method: Leaves of potted vines of the “Müller Thurgau” variety were sprayed with aqueous liquors containing (dry basis) 80% of active ingredient and 20% of emulsifier. To assess the duration of action of the active ingredients, the plants were, after the sprayed-on layer had dried, set up in the greenhouse for 8 days. Only then were the leaves infected with a zoospore suspension of Plasmopara viticola. The vines were then placed for 48 hours in a water-vapor-saturated chamber at 24° C. and then for 5 days in a greenhouse at from 20° to 30° C. To accelerate the sporangiophore discharge, the plants were then again set up in the moist chamber for 16 hours. The extent to which the leaves had been attacked was then assessed.

Pyricularia oryzae = assay type: in vivo, Pyricularia oryzae on rice seedlings ("Bahia"); details: 0.05 wt % spray liquors; protective, inoculated 24 hours after spraying; assessed after 6 days
[2] = tested on: Plutella maculipennis (diamondback moth); experiment: Plutella maculipennis (diamondback moth); ingestion-inhibiting action; assay type: in vivo; details: Plutella maculipennis 4th-stage caterpillars on dipped kohlrabi leaves, after 48 hours
Method: Young kohlrabi leaves are dipped for 3 seconds into aqueous solutions of the candidate compounds, and then placed on a round filter paper 9 cm in diameter which has been moistened with 0.5 ml of water. The filter paper is then placed in a Petri dish 10 cm in diameter. 10 caterpillars in the 4th larval stage are then placed on each leaf and the Petri dish is closed. Ingestion inhibition is determined in % after 48 hours.

[3] = tested on: Musca domestica (housefly); experiment: Musca domestica (housefly); continuous contact action; assay type: in vivo; details: continuous contact in Petri dish, counted after 24 hours
Method: Both the tops and bottoms of Petri dishes 10 cm in diameter were lined with a total of 1 ml of acetonic solutions of the active ingredients. After the solvent had evaporated (about 30 mins.), 10 files and absorbent cotton steeped in water were introduced into each dish and the dishes closed. The flies in supine position were counted after 24 hours.
If a kill rate of 80 to 100% occurs at a concentration of 0.01 mg/dish, the test is continued with falling concentrations.

Compound | fungicidal action [1] [%] | fungicidal action (Plasmopara viticola) [%] | fungicidal action (Pyricularia oryzae) [%] | further results
COC=C(C(=O)OC)c1ccccc1CON=C(c1ccccc1)C1CC1 [14 (Table I)] | 95 | 95 | – | –
COC=C(C(=O)OC)c1ccccc1CON=C(c1ccc(Cl)cc1)C1CC1 [16 (Table I)] | 95 | 95 | – | –
COC=C(C(=O)OC)c1ccccc1CON=C(c1ccc(OC)cc1)C1CC1 [17 (Table I)] | 95 | 95 | – | –
CON=C(C(=O)OC)c1ccccc1CON=C(c1ccc(OC)cc1)C1CC1 [17 (Table II)] | 95 | 95 | 100 | –
COC=C(C(=O)OC)c1ccccc1CON=C(C#N)C(C)C [49 (Table I)] | 95 | 95 | – | –
COC=C(C(=O)OC)c1ccccc1CON=C(C#N)OC1CCCCO1 (stereo not shown) [429 (Table I)] | 95 | 95 | 100 | –
COC=C(C(=O)OC)c1ccccc1CON=C(C)c1cccc(C)c1 [616 (Table I)] | 95 | 95 | 100 | –
CON=C(C(=O)OC)c1ccccc1COc1ccccc1 [A, 2-(phenoxymethyl)-phenylglyoxylic acid-methyl ester-O-methyloxime, reference compound] | 50 | 50 | – | –
COC=C(C(=O)OC)c1ccccc1CON=C(c1ccc(F)cc1)C1CC1 [Compound no. 15 (Table I)] | 95 | 95 | – | –
CON=C(C(=O)OC)c1ccccc1CON=C(c1ccc(F)cc1)C1CC1 [Compound no. 15 (Table II)] | – | 95 | 100 | –
CON=C(C(=O)OC)c1ccccc1CON=C(c1ccc(Cl)cc1)C1CC1 [Compound no. 16 (Table II)] | – | 95 | 100 | –
CON=C(C(=O)OC)c1ccccc1CON=C(C#N)C(C)(C)OC [Compound no. 36 (Table II)] | – | 95 | – | –
CON=C(C(=O)OC)c1ccccc1CON=C(C#N)C(C)(C)SC [Compound no. 43 (Table II)] | – | 95 | – | –
CON=C(C(=O)OC)c1ccccc1CON=C(C#N)C(C)C [Compound no. 49 (Table II)] | – | 95 | – | –
CON=C(C(=O)OC)c1ccccc1CON=C(C#N)C1CC1 [Compound no. 56 (Table II)] | – | 95 | – | –
CON=C(C(=O)OC)c1ccccc1CON=C(C#N)c1ccccc1 [Compound no. 117 (Table II)] | – | 95 | – | –
COC=C(C(=O)OC)c1ccccc1CON=C(C#N)c1ccc(F)c(Cl)c1 [Compound no. 156 (Table I)] | – | 95 | – | –
CON=C(C(=O)OC)c1ccccc1CON=C(C#N)OC1CCCCO1 (stereo not shown) [Compound no. 429 (Table II)] | – | 95 | – | –
CON=C(C(=O)OC)c1ccccc1CON=C(C)c1ccc(F)cc1 [Compound no. 571 (Table II)] | – | – | 100 | –
COC=C(C(=O)OC)c1ccccc1CON=C(C)c1ccccc1Cl [Compound no. 573 (Table I)] | 95 | 95 | – | –
COC=C(C(=O)OC)c1ccccc1CON=C(C)c1ccc(Cl)cc1Cl [Compound no. 578 (Table I)] | 95 | 95 | – | –
COC=C(C(=O)OC)c1ccccc1CON=C(C)c1cc(Cl)ccc1Cl [Compound no. 579 (Table I)] | – | 95 | – | –
COC=C(C(=O)OC)c1ccccc1CON=C(C)c1cc(Cl)cc(Cl)c1 [Compound no. 582 (Table I), Methyl 3-methoxy-2-[2′-[1″-(3′″,5′″-dichlorophenyl)-1″-methyl]-iminooxymethyl]-phenylacrylate] | 95 | 95 | – | –

Compound | fungicidal action [1] [%] | fungicidal action (Plasmopara viticola) [%] | fungicidal action (Pyricularia oryzae) [%] | further results
CON=C(C(=O)OC)c1ccccc1CON=C(C)c1cc(Cl)cc(Cl)c1 [Compound no. 582 (Table II), Methyl 2-methoximino-2-[2′-(1″-(3′″,5′″-dichlorophenyl)-1″-methyl)-iminooxymethyl]-phenylacetate] | – | 95 | 100 | –
COC=C(C(=O)OC)c1ccccc1CON=C(C)c1ccc(Cl)c(Cl)c1Cl [Compound no. 583 (Table I)] | – | 95 | 100 | –
CON=C(C(=O)OC)c1ccccc1CON=C(C)c1ccc(Cl)c(Cl)c1Cl [Compound no. 583 (Table II)] | – | – | 100 | –
COC=C(C(=O)OC)c1ccccc1CON=C(C)c1cccc(Br)c1 [Compound no. 592 (Table I)] | 95 | 95 | 100 | –
CON=C(C(=O)OC)c1ccccc1CON=C(C)c1cccc(Br)c1 [Compound no. 592 (Table II)] | – | – | 100 | –
COC=C(C(=O)OC)c1ccccc1CON=C(C)c1ccc(Br)cc1 [Compound no. 593 (Table I), Methyl 3-methoxy-2-[2′-(1″-(4′″-bromophenyl)-1″-methyl)-iminooxymethyl]-phenylacrylate] | – | 95 | 100 | –
CON=C(C(=O)OC)c1ccccc1CON=C(C)c1ccc([N+](=O)[O-])cc1 [Compound no. 614 (Table II), Methyl 2-methoximino-2-[2′-(1″-(4′″-nitrophenyl)-1″-methyl)-iminooxymethyl]-phenylacetate] | – | 95 | – | –
CON=C(C(=O)OC)c1ccccc1CON=C(C)c1ccc(C(C)(C)C)cc1 [Compound no. 644 (Table II)] | 95 | 95 | 100 | –
COC=C(C(=O)OC)c1ccccc1CON=C(C)c1ccccc1C(F)(F)F [Compound no. 704 (Table I)] | 95 | 95 | – | –
COC=C(C(=O)OC)c1ccccc1CON=C(C)c1cccc(C(F)(F)F)c1 [Compound no. 705 (Table I)] | 95 | 95 | – | –
COC=C(C(=O)OC)c1ccccc1CON=C(C)c1ccc(C(F)(F)F)cc1 [Compound no. 706 (Table I)] | – | 95 | 100 | –
CON=C(C(=O)OC)c1ccccc1CON=C(C)c1ccc(Oc2ccccc2)cc1 [Compound no. 769 (Table II)] | – | – | 100 | –
CON=C(C(=O)OC)c1ccccc1CON=C(C)c1ccc(C2CCCCC2)cc1 [Compound no. 782 (Table II)] | – | – | 100 | –
COC=C(C(=O)OC)c1ccccc1CON=C(c1ccc(Cl)cc1)C1CC1 [compound 16] | – | – | – | Mortality in % ([2]; application rate 400 ppm): 80%
COC=C(C(=O)OC)c1ccccc1CON=C(C#N)C(C)(C)OC [compound 36] | – | – | – | Mortality in % ([2]; application rate 200 ppm): 80%; Mortality in % ([3]; application rate 1.0 ppm): 80%
CCOC(C)(C)C(C#N)=NOCc1ccccc1C(=COC)C(=O)OC [compound 37] | – | – | – | Mortality in % ([3]; application rate 0.1 ppm): 100%
COC=C(C(=O)OC)c1ccccc1CON=C(C#N)C(C)C [compound 49] | – | – | – | Mortality in % ([2]; application rate 200 ppm): 80%; Mortality in % ([3]; application rate 0.1 ppm): 80%
COC=C(C(=O)OC)c1ccccc1CON=C(C#N)OC1CCCCO1 (stereo not shown) [compound 429] | – | – | – | Mortality in % ([2]; application rate 1000 ppm): 80%
COC=C(C(=O)OC)c1ccccc1CON=C(C)c1cc(Cl)cc(Cl)c1 [compound 582] | – | – | – | Mortality in % ([2]; application rate 400 ppm): 100%; Mortality in % ([3]; application rate 0.1 ppm): 80%
COC=C(C(=O)OC)c1ccccc1CON=C(C)c1cccc(Br)c1 [compound 592] | – | – | – | Mortality in % ([2]; application rate 400 ppm): 80%
COC=C(C(=O)OC)c1ccccc1CON=C(C)c1ccc(Br)cc1 [compound 593] | – | – | – | Mortality in % ([2]; application rate 1000 ppm): 80%; Mortality in % ([3]; application rate 0.1 ppm): 60%
COC=C(C(=O)OC)c1ccccc1CON=C(C)c1cccc(C(F)(F)F)c1 [compound 705] | – | – | – | Mortality in % ([2]; application rate 400 ppm): 80%; Mortality in % ([3]; application rate 0.1 ppm): 100%
COC=C(C(=O)OC)c1ccccc1CON=C(C)c1ccc(C(F)(F)F)cc1 [compound 706] | – | – | – | Mortality in % ([2]; application rate 400 ppm): 80%; Mortality in % ([3]; application rate 0.1 ppm): 100%
